Our source for the EC50 and Kd values is patent US9371351B2, “Glycomimetics as Pseudomonas aeruginosa lectin inhibitors” (priority 2012, dated 2016).

SMILES strings stand for the structures. Read-outs that look alike come from different tables or passages of the source.

In experiment [1] the target is T1, LecB (Pseudomonas aeruginosa, UniProt Q9HYN5). Briefly: biochemical. The experiment is classed as binding. From the text:
In this assay format, the displacement of a fluorescently-labeled reporter ligand bound to the receptor by an inhibitor can be measured by mixing protein, inhibitor and reporter ligand in a given buffer system.

In experiment [2] the target is T1, LecB. The settings on record: known value, background; cited from earlier work.

T1 sequence (Q9HYN5 entry or part of it): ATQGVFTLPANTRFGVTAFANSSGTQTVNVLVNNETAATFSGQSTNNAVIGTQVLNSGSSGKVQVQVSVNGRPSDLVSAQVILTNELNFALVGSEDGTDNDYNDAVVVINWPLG

Take `CC1OC(OCCNC(=S)Nc2ccc(-c3c4ccc(=O)cc-4oc4cc(O)ccc34)c(C(=O)O)c2)C(O)C(O)C1O` (mixture of isomers) [reporter ligand 3, N-(fluorescein-5-yl)-N′-(α-L-fucopyranosylethylen)-thiocarbamide]: at LecB [1], a half-maximal effect (EC50) was put at 697 nM.
Regarding `CC(=O)N[C@H]1C(O)O[C@H](CO)[C@@H](O[C@@H]2O[C@@H](C)[C@@H](O)[C@@H](O)[C@@H]2O)[C@@H]1O[C@@H]1O[C@H](CO)[C@H](O)[C@H](O)[C@H]1O` (stereo partly drawn) [Lewis^a trisaccharide, α-Fuc1-4(βGal1-3)-GlcNAc], at LecB [2], the Kd is 210 nM.
With `O=C1OC2(c3ccc(O)cc3Oc3cc(O)ccc32)c2ccc(NC(=S)NCCO[C@H]3O[C@H](CO)[C@@H](O)[C@H](O)[C@@H]3O)cc21` [reporter ligand 5, N-(fluorescein-5-yl)-N′-(α-D-mannopyranosylethylen)-thiocarbamide], the EC50 on LecB [1] (titration of reporter ligand with LecB, fluorescence polarization, read-out: EC50) is greater than 16000 nM.
